Structures are written as SMILES. Where a name gives a salt, the structure may show the parent alone.

The target of the first data set is T1, P2X7 receptor (Homo sapiens, UniProt Q99572).
T1 construct: 200 μl of a suspension of THP-1 cells; endogenous in cells; host or cells: THP-1 cells
T1 sequence (Q99572 1-595): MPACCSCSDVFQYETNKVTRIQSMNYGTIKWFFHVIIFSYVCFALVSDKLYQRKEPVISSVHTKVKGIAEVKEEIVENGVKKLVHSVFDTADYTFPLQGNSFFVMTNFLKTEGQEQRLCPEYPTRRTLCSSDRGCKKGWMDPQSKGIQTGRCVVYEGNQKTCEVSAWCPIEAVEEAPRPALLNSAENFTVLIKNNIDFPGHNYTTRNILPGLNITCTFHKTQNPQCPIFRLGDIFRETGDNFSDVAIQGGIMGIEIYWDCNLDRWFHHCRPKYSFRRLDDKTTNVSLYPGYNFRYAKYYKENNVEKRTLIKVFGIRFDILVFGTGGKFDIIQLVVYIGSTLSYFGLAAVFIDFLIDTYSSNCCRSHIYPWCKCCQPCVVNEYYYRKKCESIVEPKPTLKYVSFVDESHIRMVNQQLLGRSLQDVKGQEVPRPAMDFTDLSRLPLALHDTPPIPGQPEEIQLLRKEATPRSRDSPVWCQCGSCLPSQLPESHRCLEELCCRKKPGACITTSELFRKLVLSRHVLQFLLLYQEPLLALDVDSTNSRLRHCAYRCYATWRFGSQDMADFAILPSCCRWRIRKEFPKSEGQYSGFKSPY
Nature of the data set: bbATP-induced ethidium bromide uptake (fluorescence) in THP-1 cells, P2X7 receptor antagonist activity. It counts as cell-based. Conditions: 10^-5M bbATP, 37° C. for one hour, read-out: pIC50 (negative logarithm of the concentration of test compound necessary to reduce the bbATP agonist activity by 50%) (converted). An excerpt:
Certain compounds such as benzoylbenzoyl adenosine triphosphate (bbATP) are known to be agonists of the P2X7 receptor, effecting the formation of pores in the plasma membrane (Drug Development Research (1996), 37(3), p.126). Consequently, when the receptor is activated using bbATP in the presence of ethidium bromide (a fluorescent DNA probe), an increase in the fluorescence of intracellular DNA-bound ethidium bromide is observed. The increase in fluorescence can be used as a measure of P2X7 receptor activation and therefore to quantify the effect of a compound on the P2X7 receptor.
In this manner, each of the title compounds of the Examples was tested for antagonist activity at the P2X7 receptor. Thus, the test was performed in 96-well flat bottomed microtitre plates, the wells being filled with 250 μl of test solution comprising 200 μl of a suspension of THP-1 cells (2.5×10^6 cells/ml) containing 10^−4M ethidium bromide, 25 μl of a high potassium buffer solution containing 10^−5M bbATP, and 25 μl of the high potassium buffer solution containing 3×10^−5M test compound. The plate was covered with a plastics sheet and incubated at 37° C. for one hour. The plate was then read in a Perkin-Elmer fluorescent plate reader, excitation 520 nm, emission 595 nm, slit widths: Ex 15 nm, Em 20 nm. […]
Regarding `CNC[C@@H](O)CCc1ccc(Cl)c(C(=O)NCC23CC4CC(CC(C4)C2)C3)c1.Cl` [Example 1, 2-Chloro-5-[(3S)-3-hydroxy-4-(methylamino)butyl]-N-(tricyclo[3.3.1.1^3,7]dec-1-ylmethyl)benzamide, hydrochloride], the IC50 was 10 nM.

Consider `CN(C)C[C@H](O)Cc1ccc(Cl)c(C(=O)NCC23CC4CC(CC(C4)C2)C3)c1` [Example 8, 2-Chloro-5-[(2R)-3-(dimethylamino)-2-hydroxypropyl]-N-(tricyclo[3.3.1.1^3,7]dec-1-ylmethyl)-benzamide, hydrochloride], for which the IC50 was 3.98 nM.

Tested on in another data set: not given
Assay: not given
Conditions: not given
`CCNC[C@@H](O)Cc1ccc(Cl)c(C(=O)NCC23CC4CC(CC(C4)C2)C3)c1` (as salt: hydrochloride) [Example 14, 2-Chloro-5-[(2S)-3-(ethylamino)-2-hydroxypropyl]-N-(tricyclo [3.3.1.1^3,7]dec-1-ylmethyl)-benzamide, hydrochloride salt]: the melting point was found to be 214 °C.

`CCNC[C@H](O)Cc1ccc(Cl)c(C(=O)NCC23CC4CC(CC(C4)C2)C3)c1` (as salt: hydrochloride) came in with a melting point of 218 °C.

As for `CNC[C@@H](O)Cc1ccc(Cl)c(C(=O)NCC23CC4CC(CC(C4)C2)C3)c1` (as salt: hydrochloride), the melting point was determined as 196 °C.

`CC(C)NC[C@H](O)Cc1ccc(Cl)c(C(=O)NCC23CC4CC(CC(C4)C2)C3)c1` (as salt: hydrochloride) yielded a melting point of 189 °C.

In the case of `O=C(NCC12CC3CC(CC(C3)C1)C2)c1cc(C[C@@H](O)CNCCCO)ccc1Cl` (as salt: hydrochloride), the melting point was 225 °C.

For the compound `CNC[C@@H](O)CCc1ccc(Cl)c(C(=O)NCC23CC4CC(CC(C4)C2)C3)c1.Cl` [Example 1, 2-Chloro-5-[(3S)-3-hydroxy-4-(methylamino)butyl]-N-(tricyclo[3.3.1.1^3,7]dec-1-ylmethyl)benzamide, hydrochloride], the melting point is > 200 °C (dec.).
